Results as given in publication PMC10062609 (PLOS ONE, 2023).

Target: Nicotinamide phosphoribosyltransferase (NAMPT) (Homo sapiens, UniProt P43490)
Assay: biochemical

Sequence of Nicotinamide phosphoribosyltransferase (NAMPT) (P43490 whole entry): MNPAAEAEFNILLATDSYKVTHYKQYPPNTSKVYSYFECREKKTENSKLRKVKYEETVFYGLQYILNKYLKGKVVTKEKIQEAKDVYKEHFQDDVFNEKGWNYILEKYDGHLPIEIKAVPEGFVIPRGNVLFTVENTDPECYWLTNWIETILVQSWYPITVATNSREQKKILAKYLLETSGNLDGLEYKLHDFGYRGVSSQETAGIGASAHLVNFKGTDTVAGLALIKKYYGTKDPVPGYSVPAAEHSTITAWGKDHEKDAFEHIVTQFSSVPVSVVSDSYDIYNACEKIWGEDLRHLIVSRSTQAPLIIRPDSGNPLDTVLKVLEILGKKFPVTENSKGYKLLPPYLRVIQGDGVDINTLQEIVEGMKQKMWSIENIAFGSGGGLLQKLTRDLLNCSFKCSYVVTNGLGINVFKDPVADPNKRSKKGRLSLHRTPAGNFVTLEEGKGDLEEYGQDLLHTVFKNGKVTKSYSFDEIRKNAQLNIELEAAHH

| EC50 [µM] | SMILES |
| --- | --- |
| 6.18 | C[C@@H]1O[C@@H](Oc2c(-c3cc(O)c(O)c(O)c3)oc3cc(O)cc(O)c3c2=O)[C@H](O)[C@H](O)[C@H]1O [compound 2, Myricitrin] |
| 3.58 | O=c1cc2oc3cc(O)c(O)cc3c(-c3ccccc3O)c-2cc1O [compound 20, NSC9037] |
